From the NIST ThermoML archive (doi:10.1021/je800618x)
± gives the expanded uncertainty stated by the source.

Details: Crystal; DTA

## CC[n+]1ccccc1.F[P-](F)(F)(F)(F)F [1-ethylpyridinium hexafluorophosphate]
  Normal melting temperature: 103.20 ± 0.41 °C
